# Data reported in patent US10590153B2, “Process for producing crystalline DTPMP” (Zschimmer & Schwarz Mohsdorf GmbH & Co. KG, priority 2014, dated 2020).
# Test: Drying behaviour of crystallisates in dependence on residual moisture and product purity (tempering in sealed vials, visual points classification)
# Format: physicochemical
# Set-up: key: 5 points=sample unchanged; 4 points=sample compacted/started to dissolve; 3 points=sample visibly started to dissolve; 2 points=sample cloudy highly viscous solution; 1 point=sample dissolved to clear solution
# Conditions: Temperature 35 °C, test duration 24 h, sealed vial, shaken
# Description: This dependency is shown by the following example for determining the drying behaviour of crystallisates in dependence on residual moisture and product purity.
# A DTPMP solid isolated by recrystallisation is characterised by residues of adhering mother liquor via the quality parameters listed in the following table. Determination of the residual moisture content by means of a halogen dryer HB 43 S/Mettler Toledo is carried out isothermally at the indicated temperature using the shutoff criterion 4 (AK4=mean weight loss is <1 mg per 90 seconds):
# After a purification step, which consists in suspending the solid in water and then separating it off by means of a filtering centrifuge, the following quality criteria are obtained:
# The adhering residual moisture is removed stepwise from these solid samples in a rotary evaporator at 40° C. and 5 mbar vacuum, so that a series of samples with decreasing residual moisture content is prepared from each of the two purity grades (unwashed and washed).
# 4 ml borosilicate vials are filled with this sample material and the filling level is adjusted to ⅔ of the height of the glass by gentle tapping. In order to minimise evaporative losses, the screw cap of each vial is additionally sealed with a polyethylene film. All the samples are shaken in parallel in a tempering block on a heating and cooling shaker ThermoTwister comfort/Quantifoil Instruments GmbH for a defined period at a defined temperature and then assessed visually. Classification is made according to the following points system: […]
row,Compound,Visual classification at the end of the tempering step (points system)
1,O=P(O)(O)CN(CCN(CP(=O)(O)O)CP(=O)(O)O)CCN(CP(=O)(O)O)CP(=O)(O)O [unwashed quality 40 [% by mass] residual moisture],5
2,O=P(O)(O)CN(CCN(CP(=O)(O)O)CP(=O)(O)O)CCN(CP(=O)(O)O)CP(=O)(O)O [unwashed quality 47 [% by mass] residual moisture],5
3,O=P(O)(O)CN(CCN(CP(=O)(O)O)CP(=O)(O)O)CCN(CP(=O)(O)O)CP(=O)(O)O [unwashed quality 51 [% by mass] residual moisture],5
4,O=P(O)(O)CN(CCN(CP(=O)(O)O)CP(=O)(O)O)CCN(CP(=O)(O)O)CP(=O)(O)O [washed quality 11 [% by mass] residual moisture],5
5,O=P(O)(O)CN(CCN(CP(=O)(O)O)CP(=O)(O)O)CCN(CP(=O)(O)O)CP(=O)(O)O [washed quality 53 [% by mass] residual moisture],5

# Same assay, conditions: Temperature 40 °C, test duration 24 h, sealed vial, shaken
row,Compound,Visual classification at the end of the tempering step (points system)
1,O=P(O)(O)CN(CCN(CP(=O)(O)O)CP(=O)(O)O)CCN(CP(=O)(O)O)CP(=O)(O)O [unwashed quality 40 [% by mass] residual moisture],5
2,O=P(O)(O)CN(CCN(CP(=O)(O)O)CP(=O)(O)O)CCN(CP(=O)(O)O)CP(=O)(O)O [unwashed quality 47 [% by mass] residual moisture],5
3,O=P(O)(O)CN(CCN(CP(=O)(O)O)CP(=O)(O)O)CCN(CP(=O)(O)O)CP(=O)(O)O [unwashed quality 51 [% by mass] residual moisture],5
4,O=P(O)(O)CN(CCN(CP(=O)(O)O)CP(=O)(O)O)CCN(CP(=O)(O)O)CP(=O)(O)O [washed quality 11 [% by mass] residual moisture],5

# Same assay, conditions: Temperature 45 °C, test duration 24 h, sealed vial, shaken
row,Compound,Visual classification at the end of the tempering step (points system)
1,O=P(O)(O)CN(CCN(CP(=O)(O)O)CP(=O)(O)O)CCN(CP(=O)(O)O)CP(=O)(O)O [unwashed quality 40 [% by mass] residual moisture],5
2,O=P(O)(O)CN(CCN(CP(=O)(O)O)CP(=O)(O)O)CCN(CP(=O)(O)O)CP(=O)(O)O [unwashed quality 47 [% by mass] residual moisture],5
3,O=P(O)(O)CN(CCN(CP(=O)(O)O)CP(=O)(O)O)CCN(CP(=O)(O)O)CP(=O)(O)O [unwashed quality 51 [% by mass] residual moisture],5
4,O=P(O)(O)CN(CCN(CP(=O)(O)O)CP(=O)(O)O)CCN(CP(=O)(O)O)CP(=O)(O)O [washed quality 11 [% by mass] residual moisture],5

# Same assay, conditions: Temperature 50 °C, test duration 24 h, sealed vial, shaken
row,Compound,Visual classification at the end of the tempering step (points system)
1,O=P(O)(O)CN(CCN(CP(=O)(O)O)CP(=O)(O)O)CCN(CP(=O)(O)O)CP(=O)(O)O [unwashed quality 40 [% by mass] residual moisture],5
2,O=P(O)(O)CN(CCN(CP(=O)(O)O)CP(=O)(O)O)CCN(CP(=O)(O)O)CP(=O)(O)O [unwashed quality 47 [% by mass] residual moisture],5
3,O=P(O)(O)CN(CCN(CP(=O)(O)O)CP(=O)(O)O)CCN(CP(=O)(O)O)CP(=O)(O)O [unwashed quality 51 [% by mass] residual moisture],5
4,O=P(O)(O)CN(CCN(CP(=O)(O)O)CP(=O)(O)O)CCN(CP(=O)(O)O)CP(=O)(O)O [washed quality 11 [% by mass] residual moisture],5

# Same assay, conditions: Temperature 55 °C, test duration 24 h, sealed vial, shaken
row,Compound,Visual classification at the end of the tempering step (points system)
1,O=P(O)(O)CN(CCN(CP(=O)(O)O)CP(=O)(O)O)CCN(CP(=O)(O)O)CP(=O)(O)O [unwashed quality 40 [% by mass] residual moisture],5
2,O=P(O)(O)CN(CCN(CP(=O)(O)O)CP(=O)(O)O)CCN(CP(=O)(O)O)CP(=O)(O)O [unwashed quality 47 [% by mass] residual moisture],5
3,O=P(O)(O)CN(CCN(CP(=O)(O)O)CP(=O)(O)O)CCN(CP(=O)(O)O)CP(=O)(O)O [unwashed quality 51 [% by mass] residual moisture],5
4,O=P(O)(O)CN(CCN(CP(=O)(O)O)CP(=O)(O)O)CCN(CP(=O)(O)O)CP(=O)(O)O [washed quality 11 [% by mass] residual moisture],5

# Same assay, conditions: Temperature 60 °C, test duration 24 h, sealed vial, shaken
row,Compound,Visual classification at the end of the tempering step (points system)
1,O=P(O)(O)CN(CCN(CP(=O)(O)O)CP(=O)(O)O)CCN(CP(=O)(O)O)CP(=O)(O)O [unwashed quality 40 [% by mass] residual moisture],3
2,O=P(O)(O)CN(CCN(CP(=O)(O)O)CP(=O)(O)O)CCN(CP(=O)(O)O)CP(=O)(O)O [unwashed quality 47 [% by mass] residual moisture],3
3,O=P(O)(O)CN(CCN(CP(=O)(O)O)CP(=O)(O)O)CCN(CP(=O)(O)O)CP(=O)(O)O [unwashed quality 51 [% by mass] residual moisture],2
4,O=P(O)(O)CN(CCN(CP(=O)(O)O)CP(=O)(O)O)CCN(CP(=O)(O)O)CP(=O)(O)O [washed quality 11 [% by mass] residual moisture],5

# Same assay, conditions: Temperature 65 °C, test duration 5 h, sealed vial, shaken
row,Compound,Visual classification at the end of the tempering step (points system)
1,O=P(O)(O)CN(CCN(CP(=O)(O)O)CP(=O)(O)O)CCN(CP(=O)(O)O)CP(=O)(O)O [unwashed quality 40 [% by mass] residual moisture],1
2,O=P(O)(O)CN(CCN(CP(=O)(O)O)CP(=O)(O)O)CCN(CP(=O)(O)O)CP(=O)(O)O [unwashed quality 47 [% by mass] residual moisture],1
3,O=P(O)(O)CN(CCN(CP(=O)(O)O)CP(=O)(O)O)CCN(CP(=O)(O)O)CP(=O)(O)O [unwashed quality 51 [% by mass] residual moisture],1
4,O=P(O)(O)CN(CCN(CP(=O)(O)O)CP(=O)(O)O)CCN(CP(=O)(O)O)CP(=O)(O)O [washed quality 11 [% by mass] residual moisture],5

# Same assay, conditions: Temperature 70 °C, test duration 5 h, sealed vial, shaken
row,Compound,Visual classification at the end of the tempering step (points system)
1,O=P(O)(O)CN(CCN(CP(=O)(O)O)CP(=O)(O)O)CCN(CP(=O)(O)O)CP(=O)(O)O [unwashed quality 40 [% by mass] residual moisture],1
2,O=P(O)(O)CN(CCN(CP(=O)(O)O)CP(=O)(O)O)CCN(CP(=O)(O)O)CP(=O)(O)O [unwashed quality 47 [% by mass] residual moisture],1
3,O=P(O)(O)CN(CCN(CP(=O)(O)O)CP(=O)(O)O)CCN(CP(=O)(O)O)CP(=O)(O)O [unwashed quality 51 [% by mass] residual moisture],1
4,O=P(O)(O)CN(CCN(CP(=O)(O)O)CP(=O)(O)O)CCN(CP(=O)(O)O)CP(=O)(O)O [washed quality 11 [% by mass] residual moisture],5

# Same assay, conditions: Temperature 75 °C, test duration 5 h, sealed vial, shaken
row,Compound,Visual classification at the end of the tempering step (points system)
1,O=P(O)(O)CN(CCN(CP(=O)(O)O)CP(=O)(O)O)CCN(CP(=O)(O)O)CP(=O)(O)O [unwashed quality 40 [% by mass] residual moisture],1
2,O=P(O)(O)CN(CCN(CP(=O)(O)O)CP(=O)(O)O)CCN(CP(=O)(O)O)CP(=O)(O)O [unwashed quality 47 [% by mass] residual moisture],1
3,O=P(O)(O)CN(CCN(CP(=O)(O)O)CP(=O)(O)O)CCN(CP(=O)(O)O)CP(=O)(O)O [unwashed quality 51 [% by mass] residual moisture],1
4,O=P(O)(O)CN(CCN(CP(=O)(O)O)CP(=O)(O)O)CCN(CP(=O)(O)O)CP(=O)(O)O [washed quality 11 [% by mass] residual moisture],5

# Same assay, conditions: Temperature 80 °C, test duration 5 h, sealed vial, shaken
row,Compound,Visual classification at the end of the tempering step (points system)
1,O=P(O)(O)CN(CCN(CP(=O)(O)O)CP(=O)(O)O)CCN(CP(=O)(O)O)CP(=O)(O)O [unwashed quality 40 [% by mass] residual moisture],1
2,O=P(O)(O)CN(CCN(CP(=O)(O)O)CP(=O)(O)O)CCN(CP(=O)(O)O)CP(=O)(O)O [unwashed quality 47 [% by mass] residual moisture],1
3,O=P(O)(O)CN(CCN(CP(=O)(O)O)CP(=O)(O)O)CCN(CP(=O)(O)O)CP(=O)(O)O [unwashed quality 51 [% by mass] residual moisture],1
4,O=P(O)(O)CN(CCN(CP(=O)(O)O)CP(=O)(O)O)CCN(CP(=O)(O)O)CP(=O)(O)O [washed quality 11 [% by mass] residual moisture],5
5,O=P(O)(O)CN(CCN(CP(=O)(O)O)CP(=O)(O)O)CCN(CP(=O)(O)O)CP(=O)(O)O [washed quality 53 [% by mass] residual moisture],1

# Same assay, conditions: Temperature 85 °C, test duration 5 h, sealed vial, shaken
row,Compound,Visual classification at the end of the tempering step (points system)
1,O=P(O)(O)CN(CCN(CP(=O)(O)O)CP(=O)(O)O)CCN(CP(=O)(O)O)CP(=O)(O)O [unwashed quality 40 [% by mass] residual moisture],1
2,O=P(O)(O)CN(CCN(CP(=O)(O)O)CP(=O)(O)O)CCN(CP(=O)(O)O)CP(=O)(O)O [unwashed quality 47 [% by mass] residual moisture],1
3,O=P(O)(O)CN(CCN(CP(=O)(O)O)CP(=O)(O)O)CCN(CP(=O)(O)O)CP(=O)(O)O [unwashed quality 51 [% by mass] residual moisture],1
4,O=P(O)(O)CN(CCN(CP(=O)(O)O)CP(=O)(O)O)CCN(CP(=O)(O)O)CP(=O)(O)O [washed quality 11 [% by mass] residual moisture],5
5,O=P(O)(O)CN(CCN(CP(=O)(O)O)CP(=O)(O)O)CCN(CP(=O)(O)O)CP(=O)(O)O [washed quality 53 [% by mass] residual moisture],1

# Same assay, conditions: Temperature 90 °C, test duration 5 h, sealed vial, shaken
row,Compound,Visual classification at the end of the tempering step (points system)
1,O=P(O)(O)CN(CCN(CP(=O)(O)O)CP(=O)(O)O)CCN(CP(=O)(O)O)CP(=O)(O)O [unwashed quality 40 [% by mass] residual moisture],1
2,O=P(O)(O)CN(CCN(CP(=O)(O)O)CP(=O)(O)O)CCN(CP(=O)(O)O)CP(=O)(O)O [unwashed quality 47 [% by mass] residual moisture],1
3,O=P(O)(O)CN(CCN(CP(=O)(O)O)CP(=O)(O)O)CCN(CP(=O)(O)O)CP(=O)(O)O [unwashed quality 51 [% by mass] residual moisture],1
4,O=P(O)(O)CN(CCN(CP(=O)(O)O)CP(=O)(O)O)CCN(CP(=O)(O)O)CP(=O)(O)O [washed quality 11 [% by mass] residual moisture],5
5,O=P(O)(O)CN(CCN(CP(=O)(O)O)CP(=O)(O)O)CCN(CP(=O)(O)O)CP(=O)(O)O [washed quality 53 [% by mass] residual moisture],1
